According to ChEMBL document CHEMBL1201862, “PubChem BioAssay data set” (2004):
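Following 48 hours of exposure in 96-well plates, responses at five concentrations were used to interpolate endpoints linearly. At the GI50, growth is halved.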 The source made the active and inactive calls. No stated cut-off is given here; in the data, active = GI50 up to about 1.1 µM and inactive = higher.

How the values were obtained:
Assay in all cases: DTP human tumour cell line panel, 48 h
786-0 = system: 786-0
A498 = system: A498
ACHN = system: ACHN
BT-549 = system: BT-549
CAKI-1 = system: CAKI-1
CCRF-CEM = system: CCRF-CEM
COLO 205 = system: COLO 205
DU-145 = system: DU-145
EKVX = system: EKVX
HCC 2998 = system: HCC 2998
HCT-116 = system: HCT-116
HCT-15 = system: HCT-15
HL-60 = system: HL-60
HOP-62 = system: HOP-62
HOP-92 = system: HOP-92
HT-29 = system: HT-29
Hs-578T = system: Hs-578T
IGROV-1 = system: IGROV-1
K562 = system: K562
KM12 = system: KM12
LOX IMVI = system: LOX IMVI
M14 = system: M14
MCF7 = system: MCF7
MDA-MB-231 = system: MDA-MB-231
MDA-MB-435 = system: MDA-MB-435
MOLT-4 = system: MOLT-4
NCI-H226 = system: NCI-H226
NCI-H23 = system: NCI-H23
NCI-H460 = system: NCI-H460
NCI/ADR-RES = system: NCI/ADR-RES
OVCAR-4 = system: OVCAR-4
OVCAR-8 = system: OVCAR-8
PC-3 = system: PC-3
RPMI-8226 = system: RPMI-8226
RXF 393 = system: RXF 393
SF-268 = system: SF-268
SF-295 = system: SF-295
SF-539 = system: SF-539
SK-MEL-28 = system: SK-MEL-28
SK-MEL-2 = system: SK-MEL-2
SK-MEL-5 = system: SK-MEL-5
SK-OV-3 = system: SK-OV-3
SNB-19 = system: SNB-19
SNB-75 = system: SNB-75
SR = system: SR
SW-620 = system: SW-620
T47D = system: T47D
TK-10 = system: TK-10
U-251 = system: U-251
UACC-257 = system: UACC-257
UACC-62 = system: UACC-62
UO-31 = system: UO-31

With `CCCCC(=O)c1ccc2ccccc2c1O` the GI50 (786-0) was > 100 µM (inactive), the GI50 (A498) was > 100 µM (inactive) and the GI50 (ACHN) was > 100 µM (inactive). For the same compound, the GI50 (BT-549) was > 100 µM (inactive), the GI50 (CAKI-1) was > 100 µM (inactive) and the GI50 (CCRF-CEM) was 42.8 µM (inactive). For the same compound, the GI50 (COLO 205) was 88.9 µM (inactive), the GI50 (DU-145) was > 100 µM (inactive) and the GI50 (EKVX) was 62.1 µM (inactive). For the same compound, the GI50 (HCC 2998) was > 100 µM (inactive), the GI50 (HCT-116) was > 100 µM (inactive) and the GI50 (HCT-15) was greater than 100 µM. The GI50 (HL-60) was 51.3 µM (inactive), the GI50 (HOP-62) was > 100 µM (inactive) and the GI50 (HOP-92) was > 100 µM (inactive). For the same compound, the GI50 (HT-29) was > 100 µM (inactive), the GI50 (Hs-578T) was > 100 µM (inactive) and the GI50 (IGROV-1) was > 100 µM (inactive). The GI50 (K562) was 28.8 µM (inactive), the GI50 (KM12) was > 100 µM (inactive) and the GI50 (LOX IMVI) was > 100 µM (inactive). For the same compound, the GI50 (M14) was > 100 µM (inactive), the GI50 (MCF7) was 52.8 µM (inactive) and the GI50 (MDA-MB-231) was 66.4 µM (inactive). The GI50 (MDA-MB-435) was > 100 µM (inactive), the GI50 (MOLT-4) was 84.1 µM (inactive) and the GI50 (NCI-H226) was > 100 µM (inactive). For the same compound, the GI50 (NCI-H23) was > 100 µM (inactive), the GI50 (NCI-H460) was > 100 µM (inactive) and the GI50 (NCI/ADR-RES) was > 100 µM (inactive). The GI50 (OVCAR-4) was > 100 µM (inactive), the GI50 (OVCAR-8) was > 100 µM (inactive) and the GI50 (PC-3) was > 100 µM (inactive). For the same compound, the GI50 (RPMI-8226) was 35.5 µM (inactive), the GI50 (RXF 393) was 99.1 µM (inactive) and the GI50 (SF-268) was > 100 µM (inactive). For the same compound, the GI50 (SF-295) was > 100 µM (inactive), the GI50 (SF-539) was > 100 µM (inactive) and the GI50 (SK-MEL-28) was > 100 µM (inactive). The GI50 (SK-MEL-2) was > 100 µM (inactive), the GI50 (SK-MEL-5) was > 100 µM (inactive) and the GI50 (SK-OV-3) was > 100 µM (inactive). For the same compound, the GI50 (SNB-19) was > 100 µM (inactive), the GI50 (SNB-75) was > 100 µM (inactive) and the GI50 (SR) was 62.5 µM (inactive). For the same compound, the GI50 (SW-620) was > 100 µM (inactive), the GI50 (T47D) was 49.2 µM (inactive) and the GI50 (TK-10) was > 100 µM (inactive). The GI50 (U-251) was > 100 µM (inactive), the GI50 (UACC-257) was > 100 µM (inactive) and the GI50 (UACC-62) was > 100 µM (inactive). For the same compound, the GI50 (UO-31) was > 100 µM (inactive).
